Like-named read-outs stand apart in the source and are kept apart here.

Data set [1] concerns Plasmodium falciparum 3D7 strain. The arrangement: method as in earlier work. The following applies: SYBR Green I, strain with decreased susceptibility to MQ; previously determined for 2a-b, 3a-b and reference molecules; read-out: IC50 Pf3D7; cited from earlier work.
Data set [2] relates to β-hematin formation. The experiment in a line: Inhibition of β-hematin formation. To be noted: for Inhibition (%) of β-hematin formation at 2 mM: 24 h at 37 °C, versus negative control, mean ± SD of three experiments; for IC50: concentration range 0–2 mM, determined graphically. Type of data set: biochemical. As to the method: Briefly, 100 μL of a fresh 6.5 mM solution of hemin (Sigma-Aldrich, SaintQuentin Fallavier, France) dissolved in 0.2 M NaOH was mixed with 100 μL of 3 M sodium acetate, 25 μL of 17.4 M acetic acid and 25 μL of the tested drug or controls (water and MeOH/DMSO). Magnetic stirring of the solution was used to avoid sedimentation. After 24 h incubation at 37 °C under shaking, the supernatant resulting from centrifugation for 15 min at 3300× g was discarded. The pellet was washed twice with 200 μL DMSO. After a final wash with water, the pellet was dissolved in 200 μL with 0.1 M NaOH. After a further 1:30 dilution, absorption at 405 nm was read using a microplate photometer (Multiskan® EX, Thermo Scientific, Waltham, MA, USA). CQ, MQ, ENP (considered as positive controls), water and MeOH/DMSO (considered as negative controls) were included in each experiment. […] Statistical significance was defined as a value of p ≤ 0.05.

In data set [3] the test system is Plasmodium falciparum W2 strain. The arrangement: method as in earlier work. The following applies: SYBR Green I, CQ-resistant strain; previously determined for 2a-b, 3a-b and reference molecules; read-out: IC50 PfW2; cited from earlier work.
Data set [4] concerns HepG2 cell line. The experiment in a line: In vitro cytotoxicity, MTT assay on HepG2. To be noted: for Selectivity Index HepG2/3D7: CC50 on HepG2 / IC50 against Pf3D7; for SI times higher than that of parental drug MQ: versus MQ. Type of data set: cell-based, human. As to the method:
(§1) Briefly, in 96-well plates, 100 µL of a cell culture adjusted to 25,000 cells/mL was dispensed and the plates were incubated at 37 °C in a humidified 5% CO2 atmosphere for 24 h to allow the cells to adhere to the bottom of the wells. After microscopic verification of the adherent cells, the culture medium was removed and replaced with 100 μL of medium with the compounds at various concentrations dissolved in DMSO (final concentration less than 0.5% v/v), and the plates were incubated for 72 h at 37 °C. Controls were DMSO in medium (0.5% v/v) without compound as blank. Then, the supernatant from each well was removed prior to the addition of 100 µL of 3-(4,5-dimethyl-2-thiazolyl)-2,5-diphenyl-2H-tetrazolium bromide (MTT) solution (0.5 mg/mL in culture medium) per well. After 2 h of incubation, the supernatant from each well was removed and 100 µL of DMSO was added to dissolve the resulting blue formazan crystals accumulated at the bottom of the wells. The plates were incubated for 5 min at 37 °C in a humidified 5% CO2 atmosphere. Then, the wells were homogenized by shaking the plates for 10 min with a microplate shaker. The absorbance was read using the Tecan’s Sunrise™ absorbance microplate reader at 570 nm with 630 nm as the reference wavelength. […] Selectivity index (SI) was calculated and defined as the ratio between CC50 values on HepG2 and IC50.
For orientation: Tetrazolium dyes change colour on reduction, which living cells bring about.

Data set [5] in a line: In vitro cytotoxicity, MTT assay on HepG2. Type of data set: cell-based, human. The following applies: human, HepG2 cells; MTT, 72 h incubation; mean ± SD of three experiments. As to the method: as §1
Data set [6] relates to Plasmodium falciparum W2 strain. The experiment in a line: In vitro antimalarial activity, SYBR Green I fluorescence-based method, PfW2. To be noted: for IC50: Plasmodium falciparum, W2, SYBR Green I, 48 h incubation, CQ-resistant strain, 1a-b re-assayed here, mean ± SD of three experiments; for Eudysmic Ratio PfW2: ratio of IC50s of the enantiomer pair, eutomer configuration in parentheses. It is filed as cell-based. The text has this: (§2) IC50s, corresponding to in vitro antimalarial activity against PfW2 and Pf3D7, was previously determined for compounds 2a-b, 3a-b and reference molecules using the SYBR Green I fluorescence-based method. As compounds 1a-b were previously screened using the hypoxanthine-tritied method, they were here re-assayed with the SYBR Green I fluorescence-based method described elsewhere for comparison with the other two Series (2 and 3) and reference molecules. When possible, eudysmic ratios were calculated. The SYBR green I fluorescence-based method is detailed below.
(§3) Compounds were dissolved in DMSO and then diluted in sterile water in order to obtain a range of concentrations from 40 nM to […] for the first screening against culture-adapted Plasmodium falciparum reference strains 3D7 and W2. […] These two strains were obtained from the collection of the National Museum of Natural History (Paris, France). The parasites were cultivated in RPMI medium (Sigma-Aldrich, Saint Quentin Fallavier, France) supplemented with 0.5% Albumax I (Life Technologies Corporation, Paisley, UK), hypoxanthine (Sigma-Aldrich, Saint Quentin Fallavier, France) and gentamicin (Sigma-Aldrich, Saint Quentin Fallavier, France) with human erythrocytes and were incubated at 37 °C with 5% CO2 [26]. The P. falciparum drug susceptibility test was carried out in 96-well flat-bottomed sterile plates in a final volume of 250 μL. After a 48 h incubation period with the drugs, quantities of DNA in treated and control cultures of parasites in human erythrocytes were quantified using the SYBR Green I (Sigma-Aldrich, Saint Quentin Fallavier, France) fluorescence-based method. Briefly, after incubation, the plates were frozen at −20 °C until use. The plates were then thawed for 2 h at room temperature, and 100 μL of each homogenized culture was transferred to a well of a 96-well flat-bottomed sterile black plate (Sigma-Aldrich, Saint Quentin Fallavier, France) that contained 100 μL of the SYBR Green I lysis buffer (2xSYBR Green, 20 mM Tris base pH 7.5, 5 mM EDTA, 0.008% w/v saponin, 0.08% w/v Triton X-100). Negative controls treated with solvent (typically DMSO or H2O) and positive controls (CQ and MQ) were added to each set of experiments. Plates were incubated for 1 h at room temperature and then read on a fluorescence plate reader (Tecan Trading AG, Männedorf, Switzerland) using excitation and emission wavelengths of 485 and 535 nm, respectively.

Data set [7] relates to Plasmodium falciparum 3D7 strain. Put plainly: In vitro antimalarial activity, SYBR Green I fluorescence-based method, Pf3D7. It is filed as cell-based. The following applies: for IC50: Plasmodium falciparum, 3D7, SYBR Green I, 48 h incubation, strain with decreased susceptibility to MQ, 1a-b re-assayed here, mean ± SD of three experiments; for Eudysmic Ratio Pf3D7: ratio of IC50s of the enantiomer pair, eutomer configuration in parentheses.
Excerpt: as §2, §3

In data set [8] the test system is PfD6. The arrangement: method as in PMID 8513873. To be noted: Figure 1; cited from earlier work.
In data set [9] the test system is PfW2. Also on record: method as in PMID 8513873. The following applies: Figure 1; cited from earlier work.
The test system of data set [10] is Plasmodium falciparum. The arrangement: method as in PMID 8513873. The following applies: Figure 1, (S,R) vs (R,S) MQ, (+)- vs (-)-ENP; cited from earlier work.
The subject of data set [11] is hemozoin formation. The following applies: according to different studies; cited from earlier work.

Regarding `CCCCNC[C@@H](O)c1ccc(-c2ccc(C(F)(F)F)cc2)nc1C(F)(F)F` [3a], the IC50 in data set [1] was 0.479 ± 0.0382 µM; in data set [2], > 2000 µM; in [3] it was 0.132 ± 0.0103 µM. In addition, the “Inhibition (%) of β-hematin formation at 2 mM” value (from here on “Inhibition (%)”) in [2] came to 48.3 ND ^c %. Further, in [4], the “Selectivity Index HepG2/3D7” value is on record as 24. Also, it took 11.6 ± 0.7 µM to reach half-maximal cytotoxicity in data set [5] (CC50 at 72 h).
Consider `CCCCNC[C@@H](O)c1cc(C(F)(F)F)nc2c(C(F)(F)F)cccc12` [1a], for which, in data set [6], half-maximal inhibition (IC50) was put at 0.005 ± 0.0003 µM and the “Eudysmic Ratio PfW2” value is given as 1.46 (S). Besides, in data set [2], the “Inhibition (%)” value worked out at 81.8 ± 8.4% and the half-maximal inhibitory concentration (IC50) is 1170 ± 320 µM. For the same compound, in data set [7], inhibition was half-maximal at 0.0151 ± 0.0033 µM (IC50) and the “Eudysmic Ratio Pf3D7” value is recorded as 1. In addition, in data set [4], the “Selectivity Index HepG2/3D7” value came to 1695 and the “SI times higher than that of parental drug MQ” value is recorded as 15–23 times. This compound also came in with a CC50 at 72 h in [5] of 25.6 ± 2.7 µM.
`OC(c1cc(-c2ccc(C(F)(F)F)cc2)nc(C(F)(F)F)c1)C1CCCCN1` (stereo not drawn) [Enpiroline, enpiroline, reference compound]: the IC50 in data set [8] was 0.0164 µM; in data set [1], 0.0216 ± 0.0014 µM; in data set [2] it was > 2000 µM; in data set [3] it was 0.0115 ± 0.0023 µM; in [9] it was 0.00285 µM. For the same compound, the “Inhibition (%)” value in data set [2] was found to be 20.3 ND ^c %. Moreover, in [10], the “IC50 ratio between enantiomers” value is recorded as 1.15–1.22 times. In [4], the “Selectivity Index HepG2/3D7” value is reported as 204. Besides, the half-maximal cytotoxic concentration (CC50) at 72 h in [5] amounted to 4.4 ± 0.6 µM.
For the compound `CCCCNC[C@H](O)c1cc(-c2ccc(C(F)(F)F)cc2)nc(C(F)(F)F)c1` [2b], the values for the IC50 in data set [1], in [2] and in [3] were 0.0567 ± 0.0048 µM, 1770 ± 220 µM and 0.01 ± 0.0007 µM, respectively. In addition, in data set [6], the “Eudysmic Ratio PfW2” value is given as 1.1 (S). The “Inhibition (%)” value in data set [2] is 54.0 ± 22.7%. Besides, the “Eudysmic Ratio Pf3D7” value in data set [7] is 1.2 (S). Also, in data set [4], the “Selectivity Index HepG2/3D7” value came to 70. This compound also registered a CC50 at 72 h in [5] of 4 ± 0.7 µM.
With `OC(c1cc(C(F)(F)F)nc2c(C(F)(F)F)cccc12)C1CCCCN1` (stereo not drawn) [Mefloquine, mefloquine, reference compound], the 50% inhibitory concentration (IC50) in data set [8] is 0.0344 µM; in [1] it was 0.0797 ± 0.0085 µM; in data set [3], 0.0318 ± 0.001 µM; in data set [9], 0.0039 µM. Moreover, in data set [2], the “Inhibition (%)” value is listed as 61.3 ± 8.5%. The compound also yielded a CC50 at 72 h in [5] of 8.6 ± 2.6 µM.
As for `CCCCNC[C@H](O)c1ccc(-c2ccc(C(F)(F)F)cc2)nc1C(F)(F)F` [3b], the half-maximal inhibitory concentration (IC50) in data set [1] was 1.38 ± 0.993 µM; in data set [2] it was > 2000 µM; in data set [3], 0.523 ± 0.0958 µM. Also, the “Eudysmic Ratio PfW2” value in [6] is listed as 4.0 (S). Besides, the “Inhibition (%)” value in data set [2] amounted to 40.6 ± 28.3%. In addition, in data set [7], the “Eudysmic Ratio Pf3D7” value is 2.9 (S). For the same compound, the “Selectivity Index HepG2/3D7” value in [4] was >72. Moreover, the CC50 at 72 h in [5] is > 100 µM.
Consider `CCCCNC[C@@H](O)c1cc(-c2ccc(C(F)(F)F)cc2)nc(C(F)(F)F)c1` [2a], for which the IC50 is 0.0458 ± 0.0023 µM in [1], 1450 ± 300 µM in [2] and 0.009 ± 0.0004 µM in data set [3]. In [6], the “Eudysmic Ratio PfW2” value was 1.1 (S). Besides, in data set [2], the “Inhibition (%)” value came to 73.5 ± 18.0%. Moreover, in data set [7], the “Eudysmic Ratio Pf3D7” value is 1.2 (S). Moreover, in data set [4], the “Selectivity Index HepG2/3D7” value was 87. Besides, in data set [5], the half-maximal cytotoxic concentration (CC50) at 72 h stood at 4 ± 0.9 µM.
With `CCCCNC[C@H](O)c1cc(C(F)(F)F)nc2c(C(F)(F)F)cccc12` [1b], in data set [6], the IC50 was 0.0073 ± 0.0009 µM and the “Eudysmic Ratio PfW2” value is given as 1.46 (S). Further, in data set [2], the “Inhibition (%)” value was 71.3 ± 10.3% and the concentration for half-maximal inhibition (IC50) stood at 1310 ± 540 µM. For the same compound, in [7], half-maximal inhibition (IC50) was put at 0.0151 ± 0.0034 µM and the “Eudysmic Ratio Pf3D7” value worked out at 1. Also, in data set [4], the “Selectivity Index HepG2/3D7” value is listed as 2503 and the “SI times higher than that of parental drug MQ” value is on record as 15–23 times. Further, the CC50 at 72 h in [5] worked out at 37.8 ± 1.9 µM.
Take `CCN(CC)CCCC(C)Nc1ccnc2cc(Cl)ccc12` (stereo not drawn) [Chloroquine, chloroquine, reference compound]: the IC50 in data set [1] is 0.0759 ± 0.003 µM; in data set [3], 0.199 ± 0.027 µM. Also, in data set [11], the “inhibition of in vitro hemozoin formation” value is “up to 90%”.

A word on the IC50: it is the point on the concentration scale where inhibition reaches its midpoint. As a reminder, the CC50 is the concentration that lowers cell viability or growth by half. Read a high CC50 as better tolerance by the cells.

Source of the values: publication PMC11678906, “Evaluation of In Vitro Inhibition of β-Hematin Formation: A Step Towards a Comprehensive Understanding of the Mechanism of Action of New Arylamino Alcohols” (Microorganisms, 2024).
